The target in data set [1] is T1, GST-E6/His-caspase 8 (Human papillomavirus type 16, UniProt P03126).
T1 construct: made in house
As to the kind of experiment: AlphaScreen bead-based assay, GST-E6/His-caspase 8 binding. Details: species or system HPV 16. Here is the method:
FIGS. 2A-C are graphs providing data regarding inhibition of protein-protein interactions by 3-(1H-indol-1yl)propan-1-amine (1), three benzimidazole derivatives (2-4), and spinacine (5). Compounds, at the indicated concentrations (1.4 μM to 3.2 mM) were tested using a bead-based screening assay for their ability to inhibit three different protein/protein interactions: (FIG. 2A) GST-E6/His-caspase 8; (FIG. 2B) GST-E6/HisE6AP; and (FIG. 2C) GST-caspase 8/His-caspase 8. Binding in the presence of 1.4 μM of the test compound was set at 100%. Experiments were performed in triplicate, and error bars indicate the standard deviation.
HPV E6 binds to caspase 8 (Garnett, T. O., M. Filippova, and P. J. Duerksen-Hughes, Accelerated degradation of FADD and procaspase 8 in cells expressing human papilloma virus 16 E6 impairs TRAIL-mediated apoptosis. Cell death and differentiation, 2006. 13(11): p. 1915-26), and myricetin can block the E6/caspase 8 interaction in vitro (Yuan, C. H., et al., Small molecule inhibitors of the HPV16-E6 interaction with caspase 8. Bioorganic & medicinal chemistry letters, 2012. 22(5): p. 2125-9). A bead-based assay based on AlphaScreen™ technology (Perkin-Elmer) is used to identify inhibitors of the E6/caspase 8 interaction (Yuan, C. H., et al., Small molecule inhibitors of the HPV16-E6 interaction with caspase 8. Bioorganic & medicinal chemistry letters, 2012. 22(5): p. 2125-9). The ActiProbe 2K (2,000 compounds) library was screened using the same approach. […] Analysis of the structures and physical/chemical characteristics of those molecules led to the selection of five additional compounds: 3-(1H-indol-1-yl)propan-1-amine methanesulfonate (1), benzimidazole (2), 1H-benzimidazole-1-methanol (3), 2-(methoxymethyl)-1H-benzimidazole (4), and spinacine (5) for further study (FIG. 1).
To determine the dose-responsiveness of these five compounds, variable concentrations of those small molecules were first tested for their ability to inhibit E6/caspase binding. […] These molecules, which had been selected for their ability to interfere with E6/caspase 8 binding, were then tested to determine if they could also affect other interactions of E6, such as its binding to E6-associated protein (E6AP). The E6/E6AP interaction is required for the E6-mediated acceleration of p53 degradation (Huibregtse, J. M., M. Scheffner, and P. M. Howley, A cellular protein mediates association of p53 with the E6 oncoprotein of human papillomavirus types 16 or 18. The EMBO journal, 1991. 10(13): p. 4129-35).
Alpha-Screen™ technology was used to assess the interactions between GST-E6, GST-caspase 8, His-E6AP, and His-caspase 8. Binding assays were performed in white 384-well plates (Perkin-Elmer) in a total volume of 25 μl as previously described (Tungteakkhun, S. S., et al., The interaction between human papillomavirus type 16 and FADD is mediated by a novel E6 binding domain. Journal of virology, 2008. 82(19): p. 9600-14). Briefly, 5 μl (50 ng) of GST-E6 and 5 μl (87.5 ng) of His-caspase 8 were included in each reaction mixture with 5 μl blocking buffer (0.5 mg BSA, 0.5% Tween 20 in PBS) in the absence or presence of 10 μM of each test chemical. […] The mixture was incubated in the dark at room temperature overnight, and the emitted signal was detected using the Envision Multilabel plate reader (Perkin-Elmer). In the presence of test chemicals, the binding affinity was calculated as a percentage of the binding in the presence of carrier only (DMSO).

The test system of data set [2] is UPCI-SCC90-UP-Clone 35 (#90) cells. As to the kind of experiment: MTT cell viability, HPV+ HNSCC cell line #90 with doxorubicin. The conditions noted are these: 2 μM doxorubicin. It is filed as cell-based. Here is the method:
FIGS. 8A-B includes graphs showing myricetin and spinacine (5) re-sensitized HPV^+, but not HPV^−, HNSCC cell lines to treatment with doxorubicin. One HPV^− (FIG. 8A; #84) and one HPV^+ (FIG. 8B; #90) head and neck cancer cell line (2×10^4 cells per well) were seeded into 96-well plates and allowed to incubate overnight, then cells were pre-treated with myricetin or spinacine (0-12.5 μM) for 4 h. 2 μM of doxorubicin was added and cells were allowed to incubate overnight. Cell viability was measured by MTT assay, and the viability of cells untreated with small molecules was set at 100%. Experiments were performed in triplicate, and error bars indicate the standard deviation.
The results described above indicate that myricetin and spinacine sensitize HPV^+ HNSCC cells to TRAIL-induced apoptosis. To determine whether this sensitization also occurs in the context of chemotherapeutic agents, several HNSCC cell lines were tested for their responses to combination treatments.
The extracellular domain of human TRAIL was cloned into a pTriEx expression plasmid containing N-terminal Hisx6 tag. His-TRAIL was expressed in the E. coli BL-21 pLys strain and purified as previously described. […] All experiments were repeated at least three times (three biological replicates, carried out on different days), with each experimental group measured in triplicate within each of these individual experiments. […]

For data set [3] the following is noted: Galli et al. 1989, 13-week oral study in rats, spinacine hydrochloride; cited from earlier work.
For data set [4], the target named is T1, GST-E6/His-caspase 8. The conditions noted are these: Yuan et al. 2012; cited from earlier work.

T1 sequence (P03126 whole entry): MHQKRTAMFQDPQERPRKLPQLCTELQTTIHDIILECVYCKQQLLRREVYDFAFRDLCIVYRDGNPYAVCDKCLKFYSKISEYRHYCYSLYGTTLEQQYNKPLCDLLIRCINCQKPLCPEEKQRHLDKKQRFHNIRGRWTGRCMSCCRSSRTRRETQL

Regarding `OCn1cnc2ccccc21` [Compound 3, 1H-benzimidazole-1-methanol], the “EC50 for GST-E6/His-caspase 8 interaction” value in data set [1] (bead-based assay, compounds tested 1.4 μM to 3.2 mM) is on record as “No Inhibition”.

As for `O=C(O)C1Cc2[nH]cnc2CN1` (stereo not drawn) [Compound 5, 4,5,6,7-Tetrahydro-1H-imidazo(4,5-c)pyridine-6-carboxylic acid], the “cell death of HPV+ #90 cells with doxorubicin plus small molecule (in words)” value in data set [2] (small molecules 0-12.5 μM) is recorded as “higher efficiency than did myricetin”. Moreover, the “sensitization of #90 to doxorubicin” value in data set [2] (concentration of 12.5 μM) was “up to 50%”. Further, the “inhibition of E6/caspase 8 binding (in words)” value in data set [1] (FIG. 2A, primary screen at 10 μM) is given as “dose-dependent inhibition”. Besides, in data set [3], the “safety and tolerability (in words)” value is “safe, well-tolerated”.

In the case of `O=c1c(O)c(-c2cc(O)c(O)c(O)c2)oc2cc(O)cc(O)c12` [Myricetin, reference compound], the “inhibition of the E6/caspase 8 interaction in vitro (in words)” value in data set [4] is on record as “can inhibit the E6/caspase 8 interaction in vitro”.

Values taken from patent US20180200233A1, “COMPOSITIONS FOR PREVENTING CANCERS ASSOCIATED WITH HUMAN PAPILLOMA VIRUSES” (Loma Linda University, priority 2015, published 2018).
